In US12466863B2, “Nuclear reprogramming factor and induced pluripotent stem cells” (Kyoto University, priority 2005, dated 2025):

Tests used:
[1] = system: MEFs with Nanog-EGFP-IRES-Puro; test: GFP-positive colonies from Nanog-EGFP-IRES-Puro MEFs after 4-factor transduction and puromycin selection; type: cell-based, mouse; settings: PD98059 25 μM continuously from the next day of retroviral transfection; 4 factors; 8% without PD98059
Excerpt: Studies were made as to whether iPS cells could be established with a reporter other than Fbx15-βgeo. Escherichia coli artificial chromosome (BAC) containing the Nanog gene in the center was isolated, and then the GFP gene and the puromycin resistance gene were knocked in by recombination in E. coli (FIG. 12A). Subsequently, the above modified BAC was introduced into ES cells to confirm that the cells became GFP-positive in an undifferentiated state specific manner (data not shown). Then, these ES cells were transplanted in mouse blastocysts to create transgenic mice via chimeric mice. In these mice, GFP-positive cells were specifically observed in inner cell masses of the blastocysts or gonads of embryos at 13.5 days after fertilization (FIG. 12B). The gonads were removed from the embryos at 13.5 days after fertilization (hybrid of DBA, 129, and C57BL/6 mice), and MEFs were isolated. The isolated MEFs were confirmed to be GFP-negative (FIG. 13) by flow cytometry. These MEFs were retrovirally transduced with the 4 factors and subjected to puromycin selection, and as a result, a plural, number of resistant colonies were obtained. Only about 10 to 20% of the colonies were GFP-positive. When the GFP-positive colonies were passaged, they gave morphology (FIG. 14) and proliferation (FIG. 15) similar to those of ES cells. […]

[2] = system: MEFs derived from the Fbx15^βgeo/βgeo mouse; test: Effect of cytokine (bFGF- or SCF-producing STO feeder cells) on iPS cell establishment; type: cell-based; settings: no colony on normal STO cells
Excerpt: An effect of cytokine on iPS cell establishment was investigated. Expression vector (pMX retroviral vector) for basic fibroblast growth factor (bFGF) or stem cell factor (SCF) was transduced into feeder cells (STO cells) to establish cells permanently expressing the cytokines. […] As a result, the number of formed colonies increased 20 times or higher on the STO cells producing bFGF (FIG. 11) or SCF (data not shown), as compared with the culture on normal STO cells.

| Molecule | percentage of GFP-positive colonies [1] [%] | iPS cell colony formation with the 3 factors other than c-Myc [2] |
| --- | --- | --- |
| COc1cccc(-c2cc(=O)c3ccccc3o2)c1N [PD98059] | 45 | – |
| SCF: cytokine produced by STO feeder cells transduced with pMX expression vector | – | colony formation was observed |
| bFGF: cytokine produced by STO feeder cells transduced with pMX expression vector | – | colony formation was observed |
